Assay results from PubChem BioAssay (NCI).
Values joined by “and” are separate entries in the source; they are usually repeats but may differ in a detail not shown here. Equal values may be shown once.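 48-hour exposure; five concentrations; linearly interpolated endpoints. Abbreviation: GI50, concentration required for 50% inhibition of growth. TGI: concentration producing complete growth inhibition.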

Tested on: MDA-MB-468 breast
Assay: inhibition of tumour cell growth, NCI panel, 48 h

SMILES	GI50	TGI
CC(=O)[O][Hg][c]1ccccc1	0.154 µM	0.341 µM
COc1ccc(Cn2cc3c(c2-c2cc(OC)c(OC)c(OC)c2)CCc2cnoc2-3)cc1[N+](=O)[O-]	0.376 µM	4.22 µM
O=C(OCc1ccc2c(Cl)cc(Cl)c(O)c2n1)c1cc2ccccc2[nH]1	0.238 µM	0.626 µM
COc1cccc(C2C3=C(COC3=O)Oc3cc4c(cc32)OCO4)c1 (centres undefined)	0.0817 µM	> 100 µM
Cc1ccc(S(=O)(=O)Cc2nc(-c3ccc(C(=O)NCc4cccnc4)cc3)oc2C)cc1	4.74 µM	> 100 µM
C=C1C(=O)O[C@H]2[C@H]1CC/C(COC(=O)c1ccc(C#N)cc1)=C\CC[C@@]1(C)O[C@@H]21	1.03 µM	3.13 µM
CCCCCc1ccc(S(=O)(=O)N(C(C)=O)c2cccc(-c3csc(N(CCN4CCN(C)CC4)C(C)=O)n3)c2)cc1	0.735 µM	2.71 µM
CN(C[C@@H]1COCCO1)S(=O)(=O)Nc1ccc2ccc3ncc(-c4cnn(C)c4)cc3c(=O)c2c1	7.13 µM	> 100 µM
COc1ccc(-c2cc(-c3cc(OC)c(OC)c(OC)c3)c(C#N)c(N3CCOCC3)n2)cc1O	13.4 µM	> 100 µM
CCN1C(=O)N(c2ccccc2)C2NN=c3s/c(=C4\C(=O)N(C(C)C)c5ccccc54)c(=O)n3C21 (centres undefined)	0.817 µM	4.18 µM
O=C(O)C1(Cc2cccc(Nc3nccs3)n2)CCC(Oc2cccc(Cl)c2F)CC1 (centres undefined)	0.526 µM	34.6 µM
CCOC(=O)Nc1ccc(-c2nc(-c3cccc(OC)c3)c(-c3ccnc(Br)c3)[nH]2)cc1	1.67 µM	4.91 µM
CS(=O)(=O)CCNCc1ccc(-c2ccc3ncnc(Nc4ccc(OCc5ccccc5)c(Cl)c4)c3c2)o1	0.0107 µM	0.196 µM
COc1cc2nc3cc([N+](=O)[O-])ccc3c(NCCCNCC(C)(C)O)c2cc1OC	0.23 µM	0.57 µM
CNCCCNc1nc2ccccc2c2c(=O)c3cc(Cl)ccc3sc12	1.26 µM	2.83 µM
Cc1c(NC(=O)OC[C@@H]2COCCN2)cn2ncnc(Nc3ccc4c(cnn4Cc4cccc(F)c4)c3)c12	0.12 µM and 0.0454 µM	1.12 µM and 0.329 µM
C/C(Cc1ccc(Cl)cc1)=C(/c1ccc(Cl)cc1)c1ccc(OCCN(C)C)cc1	2.97 µM	7.76 µM
CC(=O)OCC1O[C@@H]([S-])C(OC(C)=O)[C@H](OC(C)=O)[C@@H]1OC(C)=O.[Au+].c1ccc(CN2[CH-]N(Cc3ccccc3)C(c3ccccc3)=C2c2ccccc2)cc1	1.54 µM	3.26 µM
CCCSC1=NC2C(N(CC)C(=O)N2CC)N1/N=C/C=C/c1ccccc1[N+](=O)[O-] (centres undefined)	3.06 µM	> 100 µM
C#Cc1cccc(Nc2nc3ccc([N+](=O)[O-])cc3nc2Nc2cccc(C#C)c2)c1	0.174 µM	0.499 µM
CCCCn1sc(=O)n(Cc2ccc(CNC(=O)OCc3ccc4c(Br)cc(Br)c(O)c4n3)cc2)c1=O	0.388 µM	> 100 µM

SMILES	GI50	TGI
COc1ccc(C(=O)c2cc3c(N)c(C(=O)Nc4cccc(Cl)c4C)sc3nc2C)cc1	0.0707 µM	1.22 µM
CCC1CCc2nc3sc(C(=O)Nc4ccccc4C)c(N)c3cc2C1 (centres undefined)	0.244 µM	0.742 µM
Cc1nc2n(c(=O)c1CCN1CCC(c3noc4cc(F)ccc34)CC1)CCCC2	34 µM	> 50 µM
N[C@@H]1CCCN(c2c(/C=C3\SC(=O)NC3=O)cccc2-c2ccccc2)C1	9.54 µM	24.5 µM
C#CCOc1cccc(Nc2ncnc3ccc(NC(=O)CCl)cc23)c1	3.16 µM	27.2 µM
CCOC(=O)c1cc2c(n1Cc1ccccc1)-c1oncc1CC2	2.19 µM	7.76 µM
CCCCCc1ccc(S(=O)(=O)Nc2cc(-c3csc(NC(=O)CN4CCN(C)CC4)n3)ccc2OC)cc1	0.917 µM	2.11 µM
O=C(O)c1ccc2c(c1)nc(Nc1cccc(Cl)c1)c1ccncc12	1.05 µM and 1.67 µM	4.84 µM and 8.97 µM
COc1cnc2c(c1)C(=O)c1c-2n(CCCN2CCCC2)c(=O)c2cc(F)ccc12	0.175 µM	0.517 µM
CCCCCCCC(=O)SCC/C=C/[C@@H]1CC(=O)NCc2nc(co2)C2=N[C@@](C)(CS2)C(=O)N[C@@H](C(C)C)C(=O)O1	0.0291 µM	23.5 µM
C/C(=C\c1ccc(Cl)c(Cl)c1)[N+](=O)[O-]	1.55 µM	3.02 µM
CC1=C[S+](c2ccccc2)c2cccc3cc4ccccc4c1c23 (centres undefined)	0.0785 µM	0.766 µM
O=C1CCc2c(sc3[nH]c(=S)n(Cc4ccccc4)c(=O)c23)C1	2.95 µM	9.31 µM
COc1ccccc1S(=O)(=O)Nc1ccc2c(c1)CN(C)C(=O)N2	2.4 µM and 1.44 µM	> 56.1 µM and 50.3 µM
Nc1c(C(=O)Nc2ccccc2F)sc2nc3c(cc12)C(=O)CCC3	0.247 µM	0.956 µM
COc1ccc(-c2nc3cc(Cl)c(Cl)cc3n2CC(=O)N=Nc2c(O)[nH]c3ccc(Cl)cc23)cc1	1.7 µM	3.4 µM
COc1ccc(C(=O)COc2cccc(/C=C3\CSc4ccc(C)cc4C3=O)c2)cc1	4.84 µM	36.9 µM
c1ccc(Cn2c(-c3ccc(OC[C@H](C4CCNCC4)n4c(-c5ccccc5)nc5ccccc54)cc3)nc3ccccc32)cc1	1.12 µM	2.46 µM
O=C(CCCCCCSc1nc(-c2ccc(Cl)cc2)cc(-c2ccc(Cl)cc2)n1)NO	1.62 µM	6.38 µM
O=[N+]([O-])c1ccc2ncccc2c1Cl	1.87 µM	4.81 µM
CN(CCCl)c1ccc(/C=C/C2=[N+](C)c3ccccc3C2(C)C)cc1	0.353 µM	1.69 µM
